# Experimental data published in patent publication US6204284A, “Use of 1-(substitutedphenyl)-3-azabicyclo[3.1.0]hexanes for the treatment of chemical dependencies” (priority 1995, dated 2001).
# pIC50: −log10 of the molar value. “Also recorded” adds a separate entry of the source.
# How the values were obtained:
# [1] = tested on: Norepinephrine (NE) reuptake in rat brain synaptosomes; assay: Inhibition of rat synaptosomal uptake of 3H-norepinephrine; assay type: biochemical; conditions: rat diencephalic-mid brain crude synaptosomes; 3H-NE 2×10^-8 M; Hill analysis
# Source text: (§1) Male Wistar rats weighing approximately 180-200 g are decapitated and their brains rapidly removed and dissected according to the method of Glowinski and Iversen. Glowinski, J. and Iversen, L. L., Regional studies of catecholamines in the rat brain I. The disposition of 3H-norepinephrine, 3H-dopamine and 3H-DOPA in various regions of the brain. J. Neurochem. 13:655-669, 1966.
# (§2) Striatal tissues are pooled from three rat brains for the uptake of 3H-dopamine (3H-DA) and diencephalic-mid brain areas were used for the uptake of 3H-norepinephrine (3H-NE) and 3H-serotonin (3H-5HT). The tissues are immediately weighed and homogenized with a teflon-glass pestle homogenizer in 10 volumes of ice cold 0.32 M sucrose. The homogenates are centrifuged at 4° C. at 900×g for 10 minutes to remove nuclear particles and cellular debris. The supernatants are carefully withdrawn and transferred into clean test tubes kept in ice. Aliquots of these preparations containing crude synaptic nerve endings are used in subsequent uptake studies.
# (§3) Amine uptake in crude synaptosomes is determined by a method essentially the same as that described by Snyder and Coyle, Snyder, S. H. and Coyle, J. T. Regional differences in 3H-norepinephrine and 3H-dopamine uptake into rat brain homogenates. J. Pharmacol. Exp. Ther. 165:78-86, 1969. Briefly, a 0.1 ml aliquot of the above tissue preparation is added to test tubes containing 3.7 ml of Krebs-Ringer phosphate buffer pH 7.4 with glucose (2 mg/ml), calcium chloride 0.024%, ascorbic acid (0.2 mg/ml) and nialamide (1.24×10^-5M). 1-(3,4-Dichlorophenyl)-3-azabicyclo[3.1.0]hexane hydrochloride at varying concentrations (0.01-2.5 μM) is added in a 0.1 ml volume. The incubation mixtures are agitated at 37° C. for 10 minutes under an atmosphere of 95% oxygen and 5% CO2 in a Dubnoff metabolic shaker to ensure irreversible inhibition of monoamine oxidase (MAO). After this initial pre-incubation period, the tubes are returned to the ice bath. 3H-DA, 3H-NE or 3H-5HT is added in a 0.1 ml volume to give a final concentration of labeled amine of 2×10^-8 M, and the incubation at 37° C. is continued for an additional 4 min. A set of tubes serving as control (uptake at 0° C.) is left in an ice bath. After the final incubation period, the samples are cooled in ice and then centrifuged at 4° C. at 10,000×g. The supernatant fluid is gently poured off from each tube. The surface of the pellet of each sample is washed with 5 ml of ice cold 0.9% sodium chloride which is then aspirated off without disturbing the pellet. The pellet is resuspended in a cintillation fluid ad radioactivity was determined. Protein content in the tissue samples is determined by the method of Lowry et al. Lowry, O. H., Rosebrough, N. J., Farr, A. L. and Randall, R. J. Protein measurement with the folin reagent. J. Biol. Chem. 193:265, 1951. The concentration of drug which inhibits the uptake of the labeled amine by 50% is determined by Hill analysis of the data.
# [2] = tested on: Serotonin (5-HT) reuptake in rat brain synaptosomes; assay: Inhibition of rat synaptosomal uptake of 3H-serotonin; assay type: biochemical; conditions: rat diencephalic-mid brain crude synaptosomes; 3H-5HT 2×10^-8 M; Hill analysis
# Source text: as §1, §2, §3
# Male Wistar rats [3] = assay: Free-choice ethanol (6% v/v) vs tap water drinking, Part II; assay type: in vivo, rat; conditions: for Ethanol Intake / Ethanol Preference / Food Consumption / Total Fluid Intake: mean ± S.D.
# Experimental: (§4) Male Wistar rats are presented with an everyday free-choice between a 6% (v/v) ethanol solution and tap water. Following a seven-day baseline period, which establishes a pattern of stable drinking, only those animals whose consumption is greater than 50% of their total fluid intake are given intraperitoneal injections of three drugs. In part I citalopram (positive control) a neuronal serotonin uptake inhibitor at a dose of 30 mg/kg, […], and 1-(3,4-dichlorophenyl)-3-azabicyclo[3.1.0]hexane hydrochloride, also a serotonin uptake inhibitor, at doses of 5, 10 and 20 mg/kg are given by intraperitoneal injection for seven days. In part II, animals are given intraperitoneal injections of diazepam at a dose of 10 mg/kg and again the positive control used is citalopram at 30 mg/kg. Treatment period for part II also is over a seven-day period. Following the seven-day treatment period, a post-treatment period which lasted for an additional seven days is conducted where the animals are presented with a free choice between ethanol and water in order to determine the rate of recovery of ethanol drinking. During baseline, drug treatment and post-treatment periods, ethanol consumption by the rats is calculated in terms of daily ethanol preference ratio (volume of ethanol per volume of total daily fluid intake) and in terms of daily absolute of ethanol ingested (g/kg body weight).
# (§5) Two hundred (200) drug-naive male Wistar rats obtained from the Canadian Breeding Farm Laboratories in Charles River Canada are used. All animals weigh between 180-200 g at the beginning of the experiment.
# (§6) All animals are individually housed in stainless steel cages, in a room regulated for constant temperature, humidity and a 12-hour light/dark cycle (7:00 a.m.-7:00 p.m.). Each cage is equipped with two calibrated glass Richter tubes to deliver the fluids (ethanol and water) to the animals. All animals are presented with a free choice between ethanol and tap water throughout the experiment. The drinking vessels are randomly reversed in order to avoid bias generated by a position preference in the animals. In addition, Purina Rat Chow is made available throughout the experiment on an ad libitum basis.
# (§7) At approximately the same time every day, 1300 h, the volume in mls of ethanol and tap water consumed by each animal is recorded. All tubes are then removed from the cages, rinsed and refilled with the appropriate fluids, i.e., ethanol solution and tap water. Also, all animals are weighed and their corresponding body weights recorded. At this time, additional food is provided.
# (§8) Drugs used in part I are dissolved in Ringers solution to form the required doses. Drugs used in part II are suspended in a vehicle which consists of a 2% pre-boiled starch solution containing 5% polyethylene glycol 400 and tween 80 (1 drop/10 ml vehicle). All drugs are administered intraperitoneally according to the schedule (see Treatment period).
# Group 2--citalopram 30 mg/kg (n=7)
# Group 3--diazepam 10 mg/kg (n=7)
# (§9) Post-treatment period:--Upon cessation of the drug treatment period, the animals are presented with a free choice between 6% ethanol and tap water for an additional 7 days in order to determine the rate of recovery of ethanol drinking.
# Male Wistar rats [4] = assay: Free-choice ethanol (6% v/v) vs tap water drinking, Part I; assay type: in vivo, rat; conditions: 30 mg/kg i.p. 7 days, mean ± S.D.
# Experimental: as §4, §5, §6, §7, §8
# Group 2--citalopram 30 mg/kg (n=10)
# Group 3--1-(3,4-dichlorophenyl)-3-azabicyclo[3.1.0]hexane hydrochloride 5 mg/kg (n=10)
# Group 4--1-(3,4-dichlorophenyl)-3-azabicyclo[3.1.0]hexane hydrochloride 10 mg/kg (n=10)
# Group 5--1-(3,4-dichlorophenyl)-3-azabicyclo[3.1.0]hexane hydrochloride 20 mg/kg (n=10)
# as §9
# [5] = tested on: Dopamine (DA) reuptake in rat brain synaptosomes; assay: Inhibition of rat synaptosomal uptake of 3H-dopamine; assay type: biochemical; conditions: rat striatal crude synaptosomes; 3H-DA 2×10^-8 M; Hill analysis
# Source text: as §1
# Striatal tissues are pooled from three rat brains for the uptake of 3H-dopamine (3H-DA) and diencephalic-mid brain areas were used for the uptake of 3H-norepinephrine (3H-NE) and 3H-serotonin (3H-5HT). The tissues are immediately weighed and homogenized with a teflon-glass pestle homogenizer in 10 volumes of ice cold 0.32 M sucrose. […]
# Amine uptake in crude synaptosomes is determined by a method essentially the same as that described by Snyder and Coyle, Snyder, S. H. and Coyle, J. T. Regional differences in 3H-norepinephrine and 3H-dopamine uptake into rat brain homogenates. […] The pellet is resuspended in a cintillation fluid ad radioactivity was determined. Protein content in the tissue samples is determined by the method of Lowry et al. Lowry, O. H., Rosebrough, N. J., Farr, A. L. and Randall, R. J. Protein measurement with the folin reagent. […] The concentration of drug which inhibits the uptake of the labeled amine by 50% is determined by Hill analysis of the data.
# [6] = 10 mg/kg i.p. 7 days, Baseline period
# [7] = 10 mg/kg i.p. 7 days, Post-Treatment period
# [8] = 10 mg/kg i.p. 7 days, Treatment period, 10 mg/kg
# [9] = 10 mg/kg i.p. 7 days, Treatment period, listed as diazepam, 10 mg/kg
# [10] = Treatment period, listed as citalopram, 30 mg/kg
# [11] = 30 mg/kg i.p. 7 days, Baseline period
# [12] = 30 mg/kg i.p. 7 days, Baseline period, 30 mg/kg
# [13] = 30 mg/kg i.p. 7 days, Baseline period, listed as citalopram, 30 mg/kg
# [14] = 30 mg/kg i.p. 7 days, Post-Treatment period
# [15] = 30 mg/kg i.p. 7 days, Treatment period, 30 mg/kg
# [16] = 30 mg/kg i.p. 7 days, Treatment period, listed as citalopram, 30 mg/kg
compound,measurement,setting,value
COc1ccc(C23CNCC2C3)cc1Br (racemic) [±H 3-Br-4-OCH3],pIC50,[1],6.50
same,pIC50,[2],6.59
Fc1ccc(C23CNCC2C3)cc1 (racemic) [±H p-F],pIC50,[2],6.09
Clc1ccc(C23CNCC2C3)cc1 (racemic) [±H p-Cl],pIC50,[1],6.56
same,pIC50,[2],6.77
CN1C(=O)CN=C(c2ccccc2)c2cc(Cl)ccc21 [Diazepam],Ethanol Intake,Male Wistar rats [3]; [6],3.92 ± 1.75 g/kg body weight
same,Ethanol Preference,Male Wistar rats [3]; [6],73.21 ± 26.62%
same,Food Consumption,Male Wistar rats [3]; [6],21.24 ± 1.94 g/day
same,Total Fluid Intake,Male Wistar rats [3]; [6],4.6321 ± 0.4679 mL/h/kg
same,Ethanol Intake,Male Wistar rats [3]; [7],3.95 ± 1.91 g/kg body weight
same,Ethanol Preference,Male Wistar rats [3]; [7],72.15%
same,Food Consumption,Male Wistar rats [3]; [7],20.98 g/day
same,Total Fluid Intake,Male Wistar rats [3]; [7],4.6487 mL/h/kg
same,Ethanol Intake,Male Wistar rats [3]; [8],3.48 ± 1.51 g/kg body weight
same,Ethanol Preference,Male Wistar rats [3]; [8],72.76 ± 28.03%
same,Food Consumption,Male Wistar rats [3]; [8],20.75 ± 2.04 g/day
same,Total Fluid Intake,Male Wistar rats [3]; [8],4.126 ± 0.369 mL/h/kg
same,Ethanol Intake,Male Wistar rats [3]; [9],no effect on ethanol intake; also recorded: no effect to attenuate voluntary ethanol consumption
same,Ethanol Preference,Male Wistar rats [3]; [9],virtually no change
same,Food Consumption,Male Wistar rats [3]; [9],no effect on food intake
same,Total Fluid Intake,Male Wistar rats [3]; [9],does not affect total fluid intake
"Clc1ccc(C23CNCC2C3)cc1 (single isomer, unassigned) [+H p-Cl]",pIC50,[1],6.55
same,pIC50,[2],7.26
c1ccc(C23CNCC2C3)cc1 (racemic) [±H H],pIC50,[1],6.40
same,pIC50,[2],6.33
CN(C)CCCC1(c2ccc(F)cc2)OCc2cc(C#N)ccc21 (stereo not shown) [Citalopram],Ethanol Intake,Male Wistar rats [4]; Baseline period,4.49 ± 1.18 g/kg body weight
same,Ethanol Preference,Male Wistar rats [4]; Baseline period,75.78 ± 18.09%
same,Food Consumption,Male Wistar rats [4]; Baseline period,20.14 ± 1.71 g/day
same,Total Fluid Intake,Male Wistar rats [4]; Baseline period,5.1746 ± 0.5146 mL/h/kg
same,Ethanol Intake,Male Wistar rats [4]; Post-Treatment period,3.32 ± 1.86 g/kg body weight
same,Ethanol Preference,Male Wistar rats [4]; Post-Treatment period,57.81 ± 32.23%
same,Food Consumption,Male Wistar rats [4]; Post-Treatment period,21.47 ± 1.94 g/day
same,Total Fluid Intake,Male Wistar rats [4]; Post-Treatment period,5.0612 ± 0.6242 mL/h/kg
same,Ethanol Intake,Male Wistar rats [4]; Treatment period,2.34 ± 1.44 g/kg body weight
same,Ethanol Preference,"Male Wistar rats [4]; Treatment period, 30 mg/kg",61.06 ± 35.09%
same,Food Consumption,"Male Wistar rats [4]; Treatment period, 30 mg/kg",11.96 ± 3.56 g/day
same,Total Fluid Intake,"Male Wistar rats [4]; Treatment period, 30 mg/kg",3.446 ± 0.394 mL/h/kg
same,Ethanol Preference,Male Wistar rats [4]; [10],slight but insignificant decrease in ethanol preference
same,Food Consumption,Male Wistar rats [4]; [10],significant decrease in food consumption
same,Total Fluid Intake,Male Wistar rats [4]; [10],3.446 mL/h/kg
same,Ethanol Intake,Male Wistar rats [3]; [11],4.86 ± 1.09 g/kg body weight
same,Food Consumption,Male Wistar rats [3]; [11],19.82 ± 1.87 g/day
same,Ethanol Preference,Male Wistar rats [3]; [12],86.16 ± 14.74%
same,Total Fluid Intake,Male Wistar rats [3]; [12],4.9042 ± 0.4583 mL/h/kg
same,Ethanol Preference,Male Wistar rats [3]; [13],86.16%
same,Total Fluid Intake,Male Wistar rats [3]; [13],4.9042 mL/h/kg
same,Ethanol Intake,Male Wistar rats [3]; [14],3.87 ± 1.91 g/kg body weight
same,Ethanol Preference,Male Wistar rats [3]; [14],68.90%
same,Food Consumption,Male Wistar rats [3]; [14],19.86 g/day
same,Total Fluid Intake,Male Wistar rats [3]; [14],4.7558 mL/h/kg
same,Ethanol Intake,Male Wistar rats [3]; [15],2.95 ± 1.59 g/kg body weight
same,Ethanol Preference,Male Wistar rats [3]; [15],69.17 ± 30.25%
same,Food Consumption,Male Wistar rats [3]; [15],14.20 ± 2.76 g/day
same,Total Fluid Intake,Male Wistar rats [3]; [15],3.616 ± 0.5479 mL/h/kg
same,Ethanol Intake,Male Wistar rats [3]; [16],partial effect
same,Ethanol Preference,Male Wistar rats [3]; [16],69.17%
same,Food Consumption,Male Wistar rats [3]; [16],14.20 g/day
same,Total Fluid Intake,Male Wistar rats [3]; [16],3.616 mL/h/kg
same,Food intake lower than baseline level during treatment,"Male Wistar rats [3]; 30 mg/kg i.p. 7 days, Treatment vs baseline",approximately 25%
Cc1ccc(C23CNCC2C3)cc1 (racemic) [±H p-CH3],pIC50,[1],6.13
same,pIC50,[5],5.63
same,pIC50,[2],6.86
"Cc1ccc(C23CNCC2C3)cc1 (single isomer, unassigned) [+H p-CH3]",pIC50,[1],6.67
same,pIC50,[2],7.02
